Data set [1] relates to full-length wild-type BTK. Description: Intact protein mass spectrometry, covalent modification. The format is binding. The conditions noted are these: 2:1 ratio of compound to protein (40 μM/20 μM), 23 °C.
Description: The proteins were injected into the sample loop and desalted for 3 min at 100 μL/min using water (0.1% formic acid) on an in-house packed POROS 20R-2 trap. Proteins were eluted into the mass spectrometer using a 15–70% ACN (0.1% formic acid) gradient in 10 min at a flow rate of 100 μL/min. Mass spectra were acquired using a Waters Synapt HDMSE mass spectrometer operated in TOF-only mode with a standard electrospray source, capillary voltage of 3200 V, and a cone voltage of 40 V with a mass range of 50–2000 m/z. Intact mass values for both free and labeled wild-type BTK were calculated from the raw m/z spectra using MaxEnt1 within MassLynx 4.1 (Waters) with a resolution of 0.05 Da and an output mass range of 65,000–85 000 Da.
A further data set concerns the target T1, TEC (Homo sapiens, UniProt P42680).
T1 construct: purchased Eurofins DiscoverX KINOMEscan (scanTK)
T1 sequence (P42680 1-631): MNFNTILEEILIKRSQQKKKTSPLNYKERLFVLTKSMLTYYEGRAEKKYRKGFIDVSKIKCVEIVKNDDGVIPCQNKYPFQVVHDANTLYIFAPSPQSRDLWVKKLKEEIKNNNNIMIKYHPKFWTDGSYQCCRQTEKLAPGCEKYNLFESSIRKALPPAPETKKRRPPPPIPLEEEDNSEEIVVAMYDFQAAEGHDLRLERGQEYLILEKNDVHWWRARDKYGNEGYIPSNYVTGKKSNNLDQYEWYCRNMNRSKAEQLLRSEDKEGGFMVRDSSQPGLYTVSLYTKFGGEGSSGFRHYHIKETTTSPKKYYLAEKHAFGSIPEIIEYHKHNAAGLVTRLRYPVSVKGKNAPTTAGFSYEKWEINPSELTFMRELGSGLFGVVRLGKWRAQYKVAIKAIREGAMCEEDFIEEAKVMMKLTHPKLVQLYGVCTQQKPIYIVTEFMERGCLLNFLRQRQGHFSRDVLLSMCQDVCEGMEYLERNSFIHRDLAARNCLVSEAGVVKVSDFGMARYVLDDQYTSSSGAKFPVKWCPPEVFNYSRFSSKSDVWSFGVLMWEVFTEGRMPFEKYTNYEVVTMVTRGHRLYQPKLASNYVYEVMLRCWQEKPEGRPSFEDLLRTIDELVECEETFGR
Description: KINOMEscan ScanTK. It counts as binding.

For another data set, the target named is T2, MUSK (Homo sapiens, UniProt O15146).
T2 construct: purchased Eurofins DiscoverX KINOMEscan (scanTK)
T2 sequence (O15146 24-869): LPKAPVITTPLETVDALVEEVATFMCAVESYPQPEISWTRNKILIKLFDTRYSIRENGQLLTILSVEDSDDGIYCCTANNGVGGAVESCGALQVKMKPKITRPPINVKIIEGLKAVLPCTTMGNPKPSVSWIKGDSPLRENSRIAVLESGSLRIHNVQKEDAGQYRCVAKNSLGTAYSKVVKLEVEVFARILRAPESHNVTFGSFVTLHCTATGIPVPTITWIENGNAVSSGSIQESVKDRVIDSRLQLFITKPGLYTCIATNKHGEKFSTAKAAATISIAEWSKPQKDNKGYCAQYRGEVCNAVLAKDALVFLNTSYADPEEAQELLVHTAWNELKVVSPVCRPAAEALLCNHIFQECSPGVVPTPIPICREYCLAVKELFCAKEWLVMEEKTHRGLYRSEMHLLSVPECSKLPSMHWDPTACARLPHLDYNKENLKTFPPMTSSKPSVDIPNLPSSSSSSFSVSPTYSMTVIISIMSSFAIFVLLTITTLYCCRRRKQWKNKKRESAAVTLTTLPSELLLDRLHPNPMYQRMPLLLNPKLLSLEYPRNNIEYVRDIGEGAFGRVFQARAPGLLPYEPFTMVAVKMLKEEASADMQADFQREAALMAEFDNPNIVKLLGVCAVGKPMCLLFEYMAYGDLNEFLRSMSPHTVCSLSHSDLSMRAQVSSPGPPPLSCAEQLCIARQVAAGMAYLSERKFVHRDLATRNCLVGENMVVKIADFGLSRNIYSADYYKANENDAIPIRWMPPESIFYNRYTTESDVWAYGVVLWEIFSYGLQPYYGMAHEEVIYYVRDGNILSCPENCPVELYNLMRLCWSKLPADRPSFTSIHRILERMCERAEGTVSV
In words: KINOMEscan ScanTK. The format is binding.

Another data set addresses T3, FGFR4 (Homo sapiens, UniProt P22455).
T3 construct: purchased Eurofins DiscoverX KINOMEscan (scanTK)
Description: KINOMEscan ScanTK. The format is binding.

Data set [2] in a line: Electrophilic reactivity assessment (GSH assay). The conditions noted are these: for stability/reactivity with 10-fold excess of GSH in PBS: up to 6 h at 20 °C, LC-MS.
Description: Final volume: 1200 μL; final composition: 100 μM compound, 100 μM standard, 1 mM GSH, 5% v/v DMSO. The resulting mixture was kept at 20 °C. Reaction monitoring and rate determination: LC-MS traces of the mixture were acquired every 10 min. Normalized integrations of the starting material and/or product were plotted as a function of time (s), using the 4-hydroxybenzoic acid peak as standard for integral calibration/normalization, allowing extraction of pseudo-first-order reaction rate constants (k’). All measurements were performed in triplicate.
In a further data set the test system is OCI-LY7 cells. Description: Anti-IgM-induced Ca2+ flux assay. It counts as cell-based, human. The following applies: 1 h pretreatment, 1000 nM or lower concentrations. On the procedure: The effects of compounds on Ca^2+ release were then analyzed following treatment of OCI-LY7 cells (derived from a diffuse large B-cell lymphoma (DLBCL)) with anti-IgM to cross-link surface IgM (sIgM). […] For 8a and 8d, we performed similar experiments at lower concentrations.
Flow cytometry was performed using a FACS Canto II system (BD Biosciences). Data was acquired for 30 s before cells were stimulated with goat antihuman F(ab’)2 anti-IgM and data were acquired for a further 3.5 min. Cells were then treated with ionomycin (1 μM; Merck) and data were acquired for 2 min. Calcium responses were quantified by calculating area under the curve (AUC) in FlowJo (Becton Dickinson) from the point of addition of anti-IgM to the addition of ionomycin.
Background: Calcium assays in cells follow changes in intracellular calcium, usually with a dye or a luminescent sensor.

A short description of another data set: Plasma stability assay. The following applies: 3 h incubation at 37 °C; 50% human plasma; 1 μM compound. It counts as in vitro ADME.

Like-named read-outs stand apart in the source and are kept apart here.

T3 sequence (P22455 22-802): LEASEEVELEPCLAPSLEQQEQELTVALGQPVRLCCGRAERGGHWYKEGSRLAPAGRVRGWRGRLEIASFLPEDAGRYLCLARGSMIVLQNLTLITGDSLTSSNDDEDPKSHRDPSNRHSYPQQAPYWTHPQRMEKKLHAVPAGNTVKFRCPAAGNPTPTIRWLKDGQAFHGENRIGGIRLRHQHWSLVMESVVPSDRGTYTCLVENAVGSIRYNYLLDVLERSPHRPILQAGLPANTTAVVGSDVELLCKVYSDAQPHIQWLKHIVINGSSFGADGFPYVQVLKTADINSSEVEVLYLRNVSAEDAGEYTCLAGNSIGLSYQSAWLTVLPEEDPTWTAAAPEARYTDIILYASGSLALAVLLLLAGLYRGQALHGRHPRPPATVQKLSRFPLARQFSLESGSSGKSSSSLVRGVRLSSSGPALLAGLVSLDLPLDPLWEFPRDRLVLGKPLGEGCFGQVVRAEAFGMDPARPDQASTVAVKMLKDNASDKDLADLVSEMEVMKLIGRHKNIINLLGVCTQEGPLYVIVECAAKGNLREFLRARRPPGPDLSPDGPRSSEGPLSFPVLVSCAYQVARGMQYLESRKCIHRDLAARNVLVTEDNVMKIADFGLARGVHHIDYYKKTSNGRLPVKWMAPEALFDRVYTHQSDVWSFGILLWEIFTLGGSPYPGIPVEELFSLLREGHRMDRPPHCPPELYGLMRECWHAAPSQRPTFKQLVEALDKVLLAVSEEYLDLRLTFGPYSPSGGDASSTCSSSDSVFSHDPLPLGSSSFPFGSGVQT

For the compound `C=CC(=O)N1CCC[C@@H](n2nc(-c3ccc(Oc4ccccc4)cc3)c3c(N)ncnc32)C1` [Compound 1g, Ibrutinib, reference compound], the “covalent modification of full-length WT BTK (intact mass)” value in data set [1] is on record as “modified full-length BTK”. Besides, the remaining binding at 1 µM worked out at 20% on TEC (@1000nM, read-out: %Control); 20% on TEC (read-out: %Control @1000nM); 95% at MUSK (@1000nM, read-out: %Control); 95% on MUSK (read-out: %Control @1000nM); 96% at FGFR4 (@1000nM, read-out: %Control); 96% on FGFR4 (read-out: %Control @1000nM).

With `Cc1cnc(S(C)(=O)=O)nc1N1CCCC(n2nc(-c3ccc(Oc4ccccc4)cc3)c3c(N)ncnc32)C1` (stereo not shown) [Compound 8a, 1-(1-(5-Methyl-2-(methylsulfonyl)pyrimidin-4-yl)piperidin-3-yl)-3-(4-phenoxyphenyl)-1H-pyrazolo[3,4-d]pyrimidin-4-amine], in data set [2], the “stability/reactivity with 10-fold excess of GSH in PBS” value is “fully stable”. For the same compound, in the data set with OCI-LY7 cells, the “effect on anti-IgM-induced Ca2+ flux” value is on record as “maintained for these compounds at concentrations down to 250 nM”. Moreover, the remaining binding at 1 µM came out at 27% at TEC (@1000nM, read-out: %Control); 27% at TEC (read-out: %Control @1000nM); 88% on MUSK (@1000nM, read-out: %Control); 88% on MUSK (read-out: %Control @1000nM); 97% on FGFR4 (@1000nM, read-out: %Control); 97% on FGFR4 (read-out: %Control @1000nM). The difference in %Control from compound Ib at 1 µM at FGFR4 (@1000nM) came to 1%.

Regarding `COC(=O)c1cnc(S(C)(=O)=O)nc1N1CCCC(n2nc(-c3ccc(Oc4ccccc4)cc3)c3c(N)ncnc32)C1` (stereo not shown) [Compound 8b, Methyl 4-(3-(4-Amino-3-(4-phenoxyphenyl)-1H-pyrazolo[3,4-d]pyrimidin-1-yl)piperidin-1-yl)-2-(methylsulfonyl)pyrimidine-5-carboxylate], the remaining binding at 1 µM on TEC (@1000nM, read-out: %Control) was 32%; at TEC (read-out: %Control @1000nM), 32%; at MUSK (@1000nM, read-out: %Control), 92%; at MUSK (read-out: %Control @1000nM) it was 92%; at FGFR4 (@1000nM, read-out: %Control), 92%; on FGFR4 (read-out: %Control @1000nM) it was 92%. For the same compound, the “% compound remaining, human plasma stability” value in the data set “Plasma stability assay” is reported as 20–50%. The difference in %Control from compound Ib at 1 µM at FGFR4 (@1000nM) is -4%.

Take `CCOC(=O)c1cnc(S(C)(=O)=O)nc1N1CCC[C@@H](n2nc(-c3ccc(Oc4ccccc4)cc3)c3c(N)ncnc32)C1` [Compound 8c, Ethyl (R)-4-(3-(4-Amino-3-(4-phenoxyphenyl)-1H-pyrazolo[3,4-d]pyrimidin-1-yl)piperidin-1-yl)-2-(methylsulfonyl)pyrimidine-5-carboxylate]: the remaining binding at 1 µM at TEC (@1000nM, read-out: %Control) stood at 53%; on TEC (read-out: %Control @1000nM), 53%; at MUSK (@1000nM, read-out: %Control), 73%; at MUSK (read-out: %Control @1000nM) it was 73%; on FGFR4 (@1000nM, read-out: %Control), 91%; on FGFR4 (read-out: %Control @1000nM), 91%. Also, the “% compound remaining, human plasma stability” value in “Plasma stability assay” is recorded as 20–50%. Further, on FGFR4 (@1000nM), the difference in %Control from compound Ib at 1 µM was -5%.

Regarding `CNC(=O)c1cnc(S(C)(=O)=O)nc1N1CCCC(n2nc(-c3ccc(Oc4ccccc4)cc3)c3c(N)ncnc32)C1` (stereo not shown) [Compound 8d, 4-(3-(4-Amino-3-(4-phenoxyphenyl)-1H-pyrazolo[3,4-d]pyrimidin-1-yl)piperidin-1-yl)-N-methyl-2-(methylsulfonyl)pyrimidine-5-carboxamide], the “covalent modification of full-length WT BTK (intact mass)” value in data set [1] was “clean and quantitative modification in under an hour”. Moreover, the “pseudo-first-order rate constant kGSH/PBS” value in data set [2] (100 μM compound, 1 mM GSH, PBS pH 7.4, 20 °C, triplicate) is given as 47 × 10^–5 ± 0.5 × 10^–5 s^–1. Also, the “stability/reactivity with 10-fold excess of GSH in PBS” value in data set [2] is given as “mild reactivity”. Also, in the data set on OCI-LY7 cells, the “effect on anti-IgM-induced Ca2+ flux” value was “maintained for these compounds at concentrations down to 250 nM”. In addition, the remaining binding at 1 µM on TEC (@1000nM, read-out: %Control) worked out at 40%; on TEC (read-out: %Control @1000nM) it was 40%; at MUSK (@1000nM, read-out: %Control), 98%; on MUSK (read-out: %Control @1000nM) it was 98%; at FGFR4 (@1000nM, read-out: %Control), 100%; at FGFR4 (read-out: %Control @1000nM), 100%. For the same compound, the difference in %Control from compound Ib at 1 µM on FGFR4 (@1000nM) came to 4%.
